Measured values from patent US20160120863A1, “SLC2A TRANSPORTER INHIBITORS” (IOMET PHARMA LTD., priority 2013, published 2016).

Assays:
human GLUT1 = target: T1, human GLUT1 (Homo sapiens, UniProt P11166); test: [3H]-deoxy-D-glucose uptake assay, GLUT1; format: cell-based; settings: [3H]-deoxy-D-glucose uptake in HEK293 cells stably expressing human GLUT1
T1 construct: expressed in transfected cells
T1 sequence (P11166 1-492): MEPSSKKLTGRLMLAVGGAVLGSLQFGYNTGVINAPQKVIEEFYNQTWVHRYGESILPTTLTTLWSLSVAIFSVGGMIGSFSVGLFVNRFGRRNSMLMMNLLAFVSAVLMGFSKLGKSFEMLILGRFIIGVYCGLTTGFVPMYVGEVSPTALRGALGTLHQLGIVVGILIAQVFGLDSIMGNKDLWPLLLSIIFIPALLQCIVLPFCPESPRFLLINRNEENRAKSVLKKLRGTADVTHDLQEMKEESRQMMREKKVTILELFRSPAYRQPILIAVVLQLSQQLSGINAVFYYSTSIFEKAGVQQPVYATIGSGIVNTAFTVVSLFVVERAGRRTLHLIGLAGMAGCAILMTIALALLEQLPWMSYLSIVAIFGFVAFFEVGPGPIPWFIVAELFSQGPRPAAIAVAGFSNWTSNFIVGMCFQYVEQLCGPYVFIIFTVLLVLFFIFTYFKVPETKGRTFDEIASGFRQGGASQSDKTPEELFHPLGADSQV
Summary of the method: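 HEK293 cells stably overexpressing human GLUT1 or GLUT2, seeded at 60,000 per well, treated with compounds in glucose-free uptake buffer for 30 min at 37 °C. [3H]-deoxy-D-glucose uptake quantified by scintillation counting after ice-cold PBS washes; IC50 determined.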

human GLUT2 = target: T2, human GLUT2 (Homo sapiens, UniProt P11168); test: [3H]-deoxy-D-glucose uptake assay, GLUT2; format: cell-based; settings: [3H]-deoxy-D-glucose uptake in HEK293 cells stably expressing human GLUT2
T2 construct: expressed in transfected cells
T2 sequence (P11168 1-524): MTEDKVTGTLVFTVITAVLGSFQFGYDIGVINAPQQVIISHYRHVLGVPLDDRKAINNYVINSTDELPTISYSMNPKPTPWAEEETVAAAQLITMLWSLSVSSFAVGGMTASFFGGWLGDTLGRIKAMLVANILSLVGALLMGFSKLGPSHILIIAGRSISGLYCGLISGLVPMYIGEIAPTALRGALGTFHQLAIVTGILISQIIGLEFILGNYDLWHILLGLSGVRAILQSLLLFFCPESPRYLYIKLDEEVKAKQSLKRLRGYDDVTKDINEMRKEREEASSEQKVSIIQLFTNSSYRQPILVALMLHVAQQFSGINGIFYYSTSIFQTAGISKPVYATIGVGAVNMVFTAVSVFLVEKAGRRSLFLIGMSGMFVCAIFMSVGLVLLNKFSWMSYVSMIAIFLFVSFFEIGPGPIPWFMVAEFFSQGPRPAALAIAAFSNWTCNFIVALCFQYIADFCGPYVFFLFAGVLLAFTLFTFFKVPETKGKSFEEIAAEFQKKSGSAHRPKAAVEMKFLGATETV
Description: HEK293 cells were engineered to stably express either human GLUT1, GLUT2, GLUt3 or GLUT4 by transfection with the pReceiver-Lv105 plasmid, containing either hGLUT1, hGLUT2, hGLUT3, or hGLUT4 gene constructs with lipofectamine 2000, hGLUT1- hGLUT2- hGLUT3- or hGLUT4-overexpressing polyclonal populations were isolated under purinomycin selective pressure (1 μg/ml) and maintained in Dulbecco's modified Eagle's medium supplemented with 1 μg/ml purinomycin+10% foetal bovine serum (FBS).
60,000 cells per well were seeded overnight into poly-D-lysine coasted 96-well plates. […] 90 μl of test compounds were added in glucose-free uptake buffer and cells were incubated at 37° C. for 30 min.
Cells were then washed twice with ice-cold PBS and 100 μl of Microscint-20 was added per well. Glucose uptake was quantified with a scintillation counter. The half maximal inhibitory concentration (IC50) (a measure of the effectiveness of the test compound in inhibiting glucose uptake) was determined.

SMILES	GLUT1 pIC50 (human GLUT1)	GLUT2 pIC50 (human GLUT2)
CC(=O)N1CCN(Cc2c(-c3ccc(Cl)cc3)nc3cnc(NS(C)(=O)=O)cn23)CC1 [Compound 331]	+− (pIC50 < 4.00)	+− (pIC50 < 4.00)
CS(=O)(=O)Nc1ccc2nc(-c3ccc(Cl)cc3)c(CN3CCn4ncnc4C3)n2c1 [Compound 337]	+++ (pIC50 ≧ 6.00)	++ (pIC50 5.00-5.99)
Clc1ccc(-c2nc3ccc(-c4ccccc4)cn3c2CCN2CCOCC2)cc1 [Compound 342]	+− (pIC50 < 4.00)	++ (pIC50 5.00-5.99)
CS(=O)(=O)Nc1ccc2nc(-c3ccc(Cl)cc3Cl)c(CN3CCn4ncnc4C3)n2c1 [Compound 345]	+++ (pIC50 ≧ 6.00)	++ (pIC50 5.00-5.99)
Clc1ccc(-c2nc3cnc(C4CC4)cn3c2CN2CCNCC2)cc1 [Compound 348]	+− (pIC50 < 4.00)	+− (pIC50 < 4.00)
Clc1ccc(-c2nc3ccc(-c4ccccc4)cn3c2CN2CCSCC2)cc1 [Compound 352]	+− (pIC50 < 4.00)	+− (pIC50 < 4.00)
CS(=O)(=O)Nc1ccc2nc(-c3ccc(Cl)cc3Cl)c(CN3CCOCC3)n2c1 [Compound 357]	+++ (pIC50 ≧ 6.00)	++ (pIC50 5.00-5.99)
CS(=O)(=O)Nc1ccc2nc(-c3ccc(Cl)cc3Cl)c(CN3CCNC(=O)C3)n2c1 [Compound 359]	+++ (pIC50 ≧ 6.00)	++ (pIC50 5.00-5.99)
O=S1(=O)CCN(Cc2c(-c3ccc(Cl)cc3)nc3ccc(-c4ccccc4)cn23)CC1 [Compound 364]	++ (pIC50 5.00-5.99)	+− (pIC50 < 4.00)
CS(=O)(=O)c1ccc2nc(-c3ccc(Cl)cc3)c(CN3CCOCC3)n2c1 [Compound 379]	++ (pIC50 5.00-5.99)	+− (pIC50 < 4.00)
CCNS(=O)(=O)c1ccc2nc(-c3ccc(Cl)cc3)c(CN3CCN(C(C)=O)CC3)n2c1 [Compound 384]	+++ (pIC50 ≧ 6.00)	++ (pIC50 5.00-5.99)

The next lines start with the values.

GLUT1 pIC50 (human GLUT1)	GLUT2 pIC50 (human GLUT2)	SMILES
+++ (pIC50 ≧ 6.00)	+++ (pIC50 ≧ 6.00)	O=C(C1COC1)N1CCN(Cc2c(-c3ccc(Cl)cc3Cl)nc3ccc(-c4ncon4)cn23)CC1 [Compound 338]
+− (pIC50 < 4.00)	+− (pIC50 < 4.00)	CC(=O)N1CCN(Cc2c(-c3ccc(Cl)cc3Cl)nc3cnc(NS(C)(=O)=O)cn23)CC1 [Compound 344]
+++ (pIC50 ≧ 6.00)	++ (pIC50 5.00-5.99)	CC(=O)N1CCN(Cc2c(-c3ccc(Cl)cc3Cl)nc3cnc(N(C)S(C)(=O)=O)cn23)CC1 [Compound 347]
++ (pIC50 5.00-5.99)	+− (pIC50 < 4.00)	CC(=O)N1CCN(Cc2c(-c3ccc(Cl)cc3Cl)nc3cnccn23)CC1 [Compound 349]
+++ (pIC50 ≧ 6.00)	+++ (pIC50 ≧ 6.00)	CC(=O)N1CCN(Cc2c(-c3ccc(Cl)cc3Cl)nc3ccc(N4CCCCS4(=O)=O)cn23)CC1 [Compound 354]
+++ (pIC50 ≧ 6.00)	+++ (pIC50 ≧ 6.00)	CC(=O)N1CCN(Cc2c(-c3ccc(Cl)cc3Cl)nc3cnc(C(C)C)cn23)CC1 [Compound 358]
+++ (pIC50 ≧ 6.00)	++ (pIC50 5.00-5.99)	CS(=O)(=O)Nc1ccc2nc(-c3ccc(Cl)cc3Cl)c(CN3CCCOCC3)n2c1 [Compound 362]
+++ (pIC50 ≧ 6.00)	++ (pIC50 5.00-5.99)	CC(=O)N1CCN(Cc2c(-c3ccc(Cl)cc3)nc3ccc(S(=O)(=O)N4CCCC4)cn23)CC1 [Compound 383]
